The record followed here is patent publication US20170159101A1, “DRUG-RESISTANT P97 ATPASE MUTATIONS” (Cleave Biosciences, Inc., priority 2014, published 2017).

Experiment [1] deals with Hct116 resistant cell line clone #139 (p97 P472S). The experiment can be described thus: GI50 fold-change, resistant clone #139 vs parental. Format: cell-based, human. Conditions: Clone #139, Hct116, resistance generated with compound 4, C1414T / P472S; 72 hrs. The procedure:
(§1) Dose titration of test compounds were conducted in Hct116, DLD-1, or LoVo cell lines. In brief, cells were plated in 384-well plates and a selected candidate drug compound was added in a 10-point 2-fold serial dilution.

The test system of experiment [2] is Hct116 resistant cell line clone #5 (p97 D649A). The conditions noted are these: Clone #5, Hct116, resistance generated with compound 2, A1946C / D649A; 72 hrs.
Experiment [3] concerns Hct116 resistant cell line clone #30 (p97 F516L). The experiment can be described thus: GI50 fold-change, resistant clone #30 vs parental. Format: cell-based, human. Conditions: Clone #30, Hct116, resistance generated with compound 4, T1546C / F516L; 72 hrs. The procedure: as §1
Experiment [4] relates to DLD-1 resistant cell line clone #58 (p97 D649D/N). The experiment can be described thus: GI50 fold-change, resistant clone #58 vs parental. Conditions: Clone #58, DLD-1, resistance generated with compound 4, G1945G/A / D649D/N; 72 hrs. Format: cell-based, human. The procedure:
as §1

In experiment [5] the test system is Hct116 resistant cell line clone #31 (p97 C535Y). The experiment is described as follows: GI50 fold-change, resistant clone #31 vs parental. Format: cell-based, human. The conditions noted are these: Clone #31, Hct116, resistance generated with compound 4, G1604A / C535Y; 72 hrs. The procedure: as §1
Experiment [6] has as its system p97 inhibitor resistant cell lines. The experiment can be described thus: GI50 fold-change in p97 inhibitor resistant cell lines (overall). Conditions: all resistant cell lines of Table 1, in words. The experiment is classed as cell-based, human. The procedure: as §1
Experiment [7] concerns Hct116 resistant cell line clone #117 (p97 L482I). The experiment is described as follows: GI50 fold-change, resistant clone #117 vs parental. The experiment is classed as cell-based, human. Conditions: Clone #117, Hct116, resistance generated with compound 4, C1444A / L482I; 72 hrs. The procedure: as §1
The subject of experiment [8] is Hct116 resistant cell line clone #25 (p97 P500T). The experiment is described as follows: GI50 fold-change, resistant clone #25 vs parental. Format: cell-based, human. The conditions noted are these: Clone #25, Hct116, resistance generated with compound 4, C1498A / P500T; 72 hrs. The procedure:
as §1

The test system of experiment [9] is Hct116 resistant cell line clone #108 (p97 P646T). The experiment is described as follows: GI50 fold-change, resistant clone #108 vs parental. The conditions noted are these: Clone #108, Hct116, resistance generated with compound 4, C1936A / P646T; 72 hrs. The experiment is classed as cell-based, human. The procedure:
Dose titration of test compounds were conducted in Hct116, DLD-1, or LoVo cell lines. In brief, cells were plated in 384-well plates and a selected candidate drug compound was added in a 10-point 2-fold serial dilution. […] Hct116 cells were plated at 50,000 cells per 15 cm dish and treated with GI50-GI90 doses of test compound for 2-4 weeks until individual colonies of cells were visible on the plate.

For experiment [10], the system named is Hct116 resistant cell line clone #8 (p97 N660D). The experiment is described as follows: GI50 fold-change, resistant clone #8 vs parental. The experiment is classed as cell-based, human. The conditions noted are these: Clone #8, Hct116, resistance generated with compound 3, A1978G / N660D; 72 hrs. The procedure: as §1
Experiment [11] has as its system DLD-1 resistant cell line clone #61 (p97 I620I/L). The experiment is described as follows: GI50 fold-change, resistant clone #61 vs parental. The conditions noted are these: Clone #61, DLD-1, resistance generated with compound 4, T1859T/C / I620I/L; 72 hrs. Format: cell-based, human. The procedure: as §1
Experiment [12] has as its system Hct116 resistant cell line clone #34 (p97 E470D/E). The experiment can be described thus: GI50 fold-change, resistant clone #34 vs parental. Format: cell-based, human. The conditions noted are these: Clone #34, Hct116, resistance generated with compound 4, G1410T/G / E470D/E; 72 hrs. The procedure:
as §1

As to `CC(C)C[C@H](NC(=O)[C@H](Cc1ccccc1)NC(=O)c1cnccn1)B(O)O` [Compound 1, [(1R)-3-methyl-1-[(2S)-3-phenyl-2-(pyrazin-2-ylformamido)propanamido]butyl]boronic acid, reference compound], the “Fold Change in GI50 Compared to Parental Cell Line” value (shortened to “Fold Change”) came to 1.0 fold in [1]; 1.0 fold in [2]; 0.9 fold in experiment [3]; 1.3 fold in [4]; 0.9 fold in [5]; 0.8 fold in experiment [7]. In addition, the “Fold Change” value was determined as 1.3 fold in experiment [8]; 0.9 fold in experiment [9]; 0.8 fold in [10]; 0.8 fold in [11]; 0.8 fold in experiment [12]. Moreover, the “fold-change in GI50 for the p97 inhibitor resistant cell lines” value in [6] is recorded as “little fold-change in GI50”.

For `Cc1cc2c(C(N)=O)cccc2n1-c1nc2c(c(NCc3ccccc3)n1)COCC2` [Compound 4, 1-[4-(benzylamino)-5H,7H,8H-pyrano[4,3-d]pyrimidin-2-yl]-2-methyl-1H-indole-4-carboxamide], the “Fold Change” value in experiment [1] is given as 4.8 fold; in [2] it was 18.7 fold; in [3], 7.1 fold; in experiment [4], 1.8 fold; in experiment [5], 4.6 fold; in experiment [7], 3.2 fold. Besides, the “Fold Change” value in experiment [8] is on record as 1.6 fold; in experiment [9] it was 2.0 fold; in [10], 1.8 fold; in experiment [11] it was 1.3 fold; in experiment [12], 3.7 fold.
